Laboratory results taken from patent US9234038B2, “Compositions and method for the diagnosis, prevention and treatment of alzheimer's disease” (Seoul National University Industry Foundation, priority 2007, dated 2016).
“Also recorded” adds a separate entry of the source.

Experiments:
FcγRIIb-CD40 chimera = molecular target: T1, FcγRIIb-CD40 chimera (UniProt P25942+Q63203); assay: FcγRIIb-CD40 chimera NF-κB luciferase assay of Aβ binding; type: cell-based, rat; settings: Aβ 5 μM
T1 construct: an extracellular domain of FcγRIIb was genetically fused to CD40, consisting of a transmembrane domain and a cytoplasmic domain; human CD40 transmembrane and cytoplasmic domains (fusion partner); expressed in transfected cells; host or cells: NIH3T3
T1 sequence (Q63203+P25942 with tags, fused parts or gaps): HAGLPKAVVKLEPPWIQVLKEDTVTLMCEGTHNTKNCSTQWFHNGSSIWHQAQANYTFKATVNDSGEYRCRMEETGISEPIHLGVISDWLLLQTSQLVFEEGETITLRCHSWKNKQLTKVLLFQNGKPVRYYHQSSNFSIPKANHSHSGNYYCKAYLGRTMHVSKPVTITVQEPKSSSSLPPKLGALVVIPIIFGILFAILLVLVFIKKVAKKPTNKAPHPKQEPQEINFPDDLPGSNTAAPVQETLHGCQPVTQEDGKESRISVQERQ
Excerpt: In order to investigate whether FcγRIIb binds to Aβ in a specific manner, an extracellular domain of FcγRIIb was genetically fused to CD40, consisting of a transmembrane domain and a cytoplasmic domain. The resulting FcγRIIb-CD40 fusion gene was expressed in NIH3T3 cells to increase NF-κ B activity, a signal transducer of CD40, when the fusion protein binds to Aβ. The chimeric gene was constructed as follows. A rat FcγRIIb extracellular region and human CD40 transmembrane and cytoplasmic domains were amplified by performing PCR with FcγRIIb-ED-5′-NheI primer (5′-[…]-3′: SEQ ID No. 15), FcγRIIb-ED-3′-HindIII primer (5′-[…]3′: SEQ ID No. 16), CD40-TM+cyto-5′ primer (5′-[…]-3′: SEQ ID No. 17), and CD40-TM+cyto-3′ primer (5′-[…]-3′: SEQ ID No. 18). PCR products were inserted into a pEGFP-N1 vector according to the same method as in Example 3. Cells were transfected with the chimeric gene, CD40, TNFRI, pcDNA3 (mock) along with an NF-kB-luciferase gene, and were exposed to 5 μM of Aβ or 20 ng/ml of TNF. NF-κ B activity was assessed, as described in Woo et al., FEBS Lett. 578, 239-244, 2004.
Based on the results of Example 10, a sequence spanning from the first to ninth residues from the N-terminus of Aβ, and a 95 to 101 sequence and a 107 to 114 sequence of mouse FcγRIIb, which are Aβ docking sites, were synthesized. Also, peptides, in which a residue involved in Aβ-cγRIIb binding in the above sequences was replaced with alanine, were synthesized. The peptides (wild type and mutant) have the sequences represented by SEQ ID Nos. 19 to 28 (panel a, FIG. 10). The synthesized peptides were individually allowed to react with a mixture of FcγRIIb-CD40 and Aβ (5 μM) or PBS. Then, luciferase activity was measured.

BALB/c mice [1] = assay: Memory test (Y-maze, passive avoidance) after i.c.v. Aβ; type: in vivo, mouse; settings: i.c.v. injection of Aβ 410 pmole plus peptide, tests after one day
Description: Tg2576 mice were not used in this test because it takes a lot of time to breed the animals, and they are expensive. Instead, normal mice were used in this memory test because the same AD symptoms as in Tg2576 mice were observed when Aβ was injected into the brains of normal mice. Normal BALB/c mice were injected intracerebroventricularly (i.c.v.) with Aβ (1.855 μg/5 μl, 410 pmole) alone or in combination with a specific peptide. After one day, a Y-maze test and a passive avoidance test were performed. Memory was assessed as described in Yan et al., Br. J. Pharmacol, 133:89-96, 2001.

BALB/c mice [2] = assay: Immunostaining of intraneuronal Aβ accumulation in mouse brain; type: in vivo; settings: mice treated i.c.v. with Aβ plus peptide
Description: Brain specimens were prepared from the mice of Example 13 according to the same method as in Example 6. Sections were immunostained with primary antibodies, anti-Aβ antibody (Biosource, USA) plus an antibody to a marker of neurons, anti-neuron specific enolase (NSE) antibody (Axxora, Swiss) or anti-neuron specific nuclear protein (NeuN) antibody (Chemicon, USA), and with secondary antibodies, anti-mouse-FITC antibody (goat anti-mouse IgG conjugated to FITC (Santa Cruz Biotechnology, USA), anti-mouse-TRITC antibody (goat anti-mouse IgG conjugated to TRITC (Santa Cruz Biotechnology, USA), and anti-rabbit-goat-anti-mouse IgG conjugated to horseradish peroxidase (Santa Cruz Biotechnology, USA)).

[3] = test system: primary-cultured neuronal cells; assay: Cell survival of Aβ-exposed primary neuronal culture treated with FcγRIIb ED; type: cell-based, rat; settings: 5 μM Aβ 48 hrs, 100 μg FcγRIIb ED, compared to BSA
Description: (§1) An FcγRIIb extracellular domain (ED) was purified as described in Sondermann et al., EMBO J, 18:1095-1103, 1999. Neuronal B103 cells or primary-cultured neuronal cells were exposed to 5 μM of Aβ for 48 hrs. Then, cells were treated or not treated with 100 μg of the purified FcγRIIb ED, or treated or not treated with 100 μg of bovine serum albumin (BSA). B103 cells were subjected to Western blotting, which was performed with anti-FcγRIIb antibody as described in Example 2-2. The primary neuronal culture was evaluated for cell survival as described in Example 3.

FcγRIIb = assay: Western blot of FcγRIIb expression in Aβ-exposed B103 cells treated with FcγRIIb ED; type: cell-based, rat; settings: 5 μM Aβ 48 hrs; 100 μg FcγRIIb ED
Description: as §1

Aβ1-42 = molecular target: T2, Aβ1-42 (Homo sapiens, UniProt P05067); assay: In vitro binding assay (immunoprecipitation, Western blot); settings: 5 μM Aβ, 20 μg FcγRIIb-ED, 37° C. 3 hrs
T2 construct: subjected to Western blotting to assess the association between FcγRII and Aβ1-42; purchased Sigma
Description: 5 μM of Aβ was mixed with 20 μg of FcγRIIb-ED or 20 μg of BSA in vitro, and was incubated at 37° C. for 3 hrs. The reaction mixture was incubated with anti-FcγRIIb polyclonal antibody or anti-GST antibody for 2 hrs, and then with Protein G for 3 hrs (binding solution: 50 mM Tris-HCl, pH 7.4, 1 mM DTT, 0.5 mM EDTA, 0.01% Triton X-100, 0.5 mg/ml bovine serum albumin, 10% (v/v) glycerol, protease inhibitors cocktail, several concentrations of NP-40). The beads were washed three times and subjected to Western blotting to assess the association between FcγRII and Aβ1-42. Western blotting was carried out with K9.361 antibody and anti-Aβ antibody (primary antibody: 71-5800 (Zymed, USA); secondary antibody: goat anti-rabbit IgG conjugated to horseradish peroxidase (Santa Cruz Biotechnology, USA).

B103 cells [4] = assay: Viability of siRNA-transfected B103 cells exposed to Aβ; type: cell-based, rat; settings: 5 μM Aβ, 48 hrs
Excerpt: Small interfering RNAs (siRNAs) inhibiting the expression of FcγIIb and receptors for advanced glycation end-product (RAGE), which is known as a cell surface receptor of Aβ, were constructed, and their effects on cell death were compared to each other. A siRNA duplex was formed by hybridizing sense and antisense complementary RNA oligonucleotides, listed in Table 1, below, and was inserted into pSuper-neo (Oligoengine, USA). The siRNA expression vectors thus constructed were individually transfected into B103 cells using lipofectamine (Invitrogen, USA) according to the manufacturer's protocol. The resulting transfected cells were designated “pSuper-neo”, “psiFcγRIIb#1”, “psiFcγRIIb#2”, “psiRAGE#1”, and “psiRAGE#2”. Then, transfected cells were subjected to Western blot analysis. […] Then, the transformed B103 cells were exposed to 5 μM of Aβ or PBS for 48 hrs, and their viability was evaluated. Cell survival was assessed through trypan blue exclusion, Hoechst staining (Sigma, USA), and Annexin V labeling (Promega, USA). The survival of effector cells and cells introduced with pEGFP (Clontech, USA) was determined by observing the morphology of GFP-positive cells under a fluorescence microscope (Leica DMRBE, Germany). Cells were determined to be dead when the cell morphology changed to a spherical shape and the cell membrane was disrupted or destroyed.

B103 cells [5] = assay: Immunostaining of intracellular Aβ accumulation in siRNA-transfected B103 cells; type: cell-based, rat; settings: 100 nM Aβ, 12 hrs
Description: psiFcγRIIb #1 cells or psiRAGE #1 cells, prepared in Example 4, were exposed to 100 nM of Aβ or PBS for 12 hrs, and immunostained with anti-Aβ antibody (4G8; Signet, USA) according to the same method as in Example 2-3.

T2 sequence (P05067 672-713): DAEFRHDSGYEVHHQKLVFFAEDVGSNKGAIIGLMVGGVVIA

## peptide #1: synthesized peptide among SEQ ID Nos. 19 to 28; corresponds to a binding region in Aβ or FcγRIIb; probably SEQ ID No. 19 (DAEFRHDSG; Synthetic peptide #1 for interaction inhibitor)
FcγRIIb-CD40 chimera; listed as #1
  NF-κB activation induced through binding of Aβ to FcγRIIb-CD40 (luciferase activity): strongly inhibited; also recorded: effectively inhibited
BALB/c mice [1]; listed as #1
  Aβ-induced memory decline: strongly reduce; also recorded: restore
BALB/c mice [2]; listed as #1
  intraneuronal Aβ accumulation in brain: disappeared; also recorded: completely inhibited

## peptide #7: mutant peptide having an alanine substitution for a residue responsible for Aβ-FcγRIIb binding; among SEQ ID Nos. 19 to 28 (DAEARHASG; Synthetic peptide #7 for interaction inhibitor)
FcγRIIb-CD40 chimera
  NF-κB activation induced through binding of Aβ to FcγRIIb-CD40 (luciferase activity): sharp decrease in inhibitory effects
BALB/c mice [1]
  Aβ-induced memory decline: failed to reverse memory decline
BALB/c mice [2]
  intraneuronal Aβ accumulation in brain: strong intraneuronal Aβ staining

## FcγRIIb ED: purified FcγRIIb extracellular domain (SEQ ID No. 33), purified as described in Sondermann et al. 1999
[3]
  Aβ signaling / relative cell viability: completely inhibit
[3]; listed as FcγRIIb extracellular domain
  Aβ signaling / relative cell viability: increased to that of cells not exposed to Aβ; also recorded: increase the relative viability of neuronal cells exposed to Aβ to the same level as cells not exposed to Aβ
FcγRIIb
  Aβ-increased expression of FcγRIIb: suppressed
Aβ1-42
  binding of Aβ to FcγRIIb-ED: directly bind

## 9: synthesized peptide among SEQ ID Nos. 19 to 28; corresponds to a binding region in Aβ or FcγRIIb; probably SEQ ID No. 27 (RCHSWRNK; Synthetic peptide #9 for interaction inhibitor) [compound 9]
FcγRIIb-CD40 chimera
  NF-κB activation induced through binding of Aβ to FcγRIIb-CD40 (luciferase activity): strongly inhibited; also recorded: effectively inhibited
BALB/c mice [1]
  Aβ-induced memory decline: strongly reduce; also recorded: restore

B1: siRNA against RAGE: siRNA against RAGE, oligomers SEQ ID Nos. 13 and 14, inserted into pSuper-neo (nucleic acid)
sense: GATCCCCGCTCCGGATGAAGAATCAGTTCAAGAGACTGATTCTTCATCCGGAGCTTTTTGGAAA
antisense: AGCTTTTCCAAAAAGCTCCGGATGAAGAATCAGTCTCTTGAACTGATTCTTCATCCGGAGCGGAGTCGGG
modifications: expressed or natural sequence; the letters are possibly those of the target site
B103 cells [4]
  Aβ-induced cell death / survival: low survival
B103 cells [5]
  intracellular Aβ accumulation: maintained
